{"source": "patent US20040063742A1", "about": "(priority 2001, published 2004)", "key": {"dopamine transporter": {"biological_target": "T1, dopamine transporter (Rattus norvegicus, UniProt P23977)", "T1 construct": "Striata from male Wistar rats (150-200 g) are homogenized; from tissue; host or cells: rat striatum (male Wistar), membrane pellet", "T1 sequence (P23977 whole entry)": "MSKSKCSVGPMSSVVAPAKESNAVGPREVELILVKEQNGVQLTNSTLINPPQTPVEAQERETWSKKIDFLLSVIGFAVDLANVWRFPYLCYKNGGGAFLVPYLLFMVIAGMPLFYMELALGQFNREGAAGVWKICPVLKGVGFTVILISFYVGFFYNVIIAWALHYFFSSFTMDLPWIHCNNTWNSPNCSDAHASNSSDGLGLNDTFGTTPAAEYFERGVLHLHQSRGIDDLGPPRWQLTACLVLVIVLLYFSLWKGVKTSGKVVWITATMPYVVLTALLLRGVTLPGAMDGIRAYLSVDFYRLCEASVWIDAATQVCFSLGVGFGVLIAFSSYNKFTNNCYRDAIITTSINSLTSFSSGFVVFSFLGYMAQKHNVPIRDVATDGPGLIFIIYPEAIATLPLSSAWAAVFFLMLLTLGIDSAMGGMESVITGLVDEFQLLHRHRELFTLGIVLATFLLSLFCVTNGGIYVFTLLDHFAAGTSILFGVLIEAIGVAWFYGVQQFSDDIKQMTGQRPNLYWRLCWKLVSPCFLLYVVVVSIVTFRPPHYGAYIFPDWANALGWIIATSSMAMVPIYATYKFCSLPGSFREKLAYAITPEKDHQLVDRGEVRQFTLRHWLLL", "assay": "Inhibition of in vitro [3H]WIN 35428 binding to the dopamine transporter in rat striatal synaptosomes", "settings": "[3H]WIN 35428 1 nM", "description": "Inhibition of In Vitro [^3H]WIN 35428 Binding to the Dopamine Transporter in Rat Striatal Synaptosomes\nIn this method the ability of test compounds to inhibit the binding of WIN 35428 to the dopamine transporter in vitro is assessed.\nTissue preparation: Striata from male Wistar rats (150-200 g) are homogenized for 5-10 sec in 10 ml NaH2PO4 (50 mM, pH 7.4) using an Ultra-Turrax homogenizer. The suspension is centrifuged at 27,000×g for 15 min. The supernatant is discarded and the pellet is resuspended in phosphate buffer (1000 ml per g of original tissue) and used for binding assays.\nBinding assays: Aliquots of 0.5 ml tissue suspension are added to 0.025 ml of test solution and 0.025 ml of [^3H]WIN 35428 (1 nM, final concentration), mixed and incubated for 60 min at 2° C. Non-specific binding is determined using cocaine (30 μM, final concentration).\nAfter incubation 5 ml of ice-cold buffer is added to the samples and poured directly onto Whatman GF/C glass fiber filters (for the [^3H]GBR 12935 assay the filters are presoaked in 0.1% PEI for at least 20 min) under suction and immediately washed with 5 ml ice-cold buffer. The amount of radioactivity on the filters is determined by conventional liquid scintillation counting using a Tri-carb liquid scintillation analyzer (model 1600CA; Packard, USA). […]"}, "[1]": {"biological_target": "T2, 3H-dopamine uptake in striatal synaptosomes (Rattus norvegicus, UniProt P23977)", "T2 construct": "Corpi striati from male Wistar rats (150-200 g) are homogenised; from tissue; host or cells: rat corpus striatum (male Wistar), P2 synaptosomal pellet", "T2 sequence (P23977 whole entry)": "as above", "assay": "In vitro inhibition of 3H-dopamine (3H-DA) uptake in striatal synaptosomes", "type": "biochemical", "description": "In vitro Inhibiti n of ^3H-dopamin (3H-DA) Uptake in Striatal Synaptosom s\nIn this test, the ability of a compound enhancing the dopamine activity (below: the test compound) to inhibit the uptake of ^3H-dopamine in striatal synaptosomes is assessed.\nTissue preparations: Preparations are performed at 0-4° C. unless otherwise indicated. Corpi striati from male Wistar rats (150-200 g) are homogenised for 5-10 sec in 100 volumes of ice-cold 0.32M sucrose containing 1 mM pargyline using an Ultra-Turrax homogenizer. Monoamine oxidase activity will be inhibited in the presence of pargyline. The homogenate is centrifuged at 1000×g for 10 min. The resulting supernatant is then centrifuged at 27,000×g for 50 min and the supernatant is discarded. […]\nAssay: Aliquots of 4.0 ml tissue suspension are added to 100 μl of test solution and 100 μl of ^3H-DA (1 nM, final concentration), mixed and incubated for 25 min at 37° C. Non-specific uptake is determined using benztropine (10 μM, final concentration). […] The amount of radioactivity on the filters is determined by conventional liquid scintillation counting. Specific uptake is calculated as the difference between total uptake and non-specific uptake. […]"}, "[2]": {"test_system": "dopaminergic neurons in dissociated cultures from rat E14 ventral mesencephali", "assay": "Survival of embryonic rat dopaminergic neurons", "type": "cell-based", "settings": "TH-immunoreactive cells, 7 days in culture", "description": "Survival of Embryonic Rat Dopaminergic Neurons\nIn this experiment the effect of a test compound on the survival of dopaminergic neurons in dissociated cultures established from rat E14 ventral mesencephali (VM) is assessed.\nEmbryonic rat brains (Wistar; E14) were isolated under sterile conditions placed in chilled Gey's balanced salt solution (GIBCO) with glucose (6.5 mg/ml).\nThe ventral mesencephali were dissected out, cut into small tissue pieces, placed in Neurobasal medium with B27 supplement and gently pressed through a 80 μm Nitex filter. The cells were counted using a hemocytometer and plated in a 6 well multi-dish at a density of approximately 2.0×10^6 cells/well. Culture dishes were pre-coated with poly-D-lysine.\nAfter 1 hour, the medium was removed and fresh medium added (1.5 ml/well). […] Untreated cultures served as controls. The medium was changed every other day and antimitotics and antibiotics were not used at any stage.\nAfter 7 days in culture, cultures were then immunostained for tyrosine hydroxylase (TH). Briefly, the cells were washed in 0.05M tris-buffered saline (TBS, pH 7.4) containing 1% Triton X-100 for 3×15 minutes and incubated with 10% foetal bovine serum (FBS, Life Technologies) in TBS for 30 minutes. The cells were then incubated for 24 hours at 4° C. with monoclonal mouse anti-TH antibody (Boehringer Mannheim) diluted 1:600 in TBS with 10% FBS. After rinsing in TBS with 1% Triton X-100 for 3×15 minutes, cells were incubated for 60 minutes with biotinylated anti-mouse IgG antibody (Amersham) diluted 1:200 in TBS with 10% FBS. The cells were then washed in TBS with 1% Triton X-100 (3×15 minutes) and incubated for 60 minutes with streptavidine-peroxidase (Dako) diluted 1:200 in TBS with 10% FBS. After washing in TBS (3×15 minutes), bound antibody was visualised by treatment with 0.05% 3,3-diaminobenzidine (Sigma) in TBS containing 0.01% H2O2. TH-immunoreactive (ir) cells were counted manually."}}}
{"compound": "O=C1Nc2c(cc(-c3ccc(Cl)cc3)c3c2CCCC3)C1=NO", "note": "[compound a, 5-(4-Chlorophenyl)-6,7,8,9-tetrahydro-1-H-pyrrolo[3.2-h]naphthalene-2,3-dione-3-oxime]", "values": [{"measurement": "IC50", "setting": "dopamine transporter", "value": 140, "unit": "nM"}, {"measurement": "IC50", "setting": "[1]", "value": 34, "unit": "nM"}, {"measurement": "Inhibition of cell loss", "setting": "[2]; 0.3 μM compound a", "value": 74, "unit": "%"}, {"measurement": "Inhibition of cell loss", "setting": "[2]; 1.0 μM compound a", "value": 62, "unit": "%"}, {"measurement": "Inhibition of cell loss", "setting": "[2]; 3.0 μM compound a", "value": 17, "unit": "%"}]}
